Molecules are shown by their SMILES.

This data set concerns the target T1, Solute carrier family 22 member 1 (Mus musculus, UniProt O08966).
T1 sequence (O08966 whole entry): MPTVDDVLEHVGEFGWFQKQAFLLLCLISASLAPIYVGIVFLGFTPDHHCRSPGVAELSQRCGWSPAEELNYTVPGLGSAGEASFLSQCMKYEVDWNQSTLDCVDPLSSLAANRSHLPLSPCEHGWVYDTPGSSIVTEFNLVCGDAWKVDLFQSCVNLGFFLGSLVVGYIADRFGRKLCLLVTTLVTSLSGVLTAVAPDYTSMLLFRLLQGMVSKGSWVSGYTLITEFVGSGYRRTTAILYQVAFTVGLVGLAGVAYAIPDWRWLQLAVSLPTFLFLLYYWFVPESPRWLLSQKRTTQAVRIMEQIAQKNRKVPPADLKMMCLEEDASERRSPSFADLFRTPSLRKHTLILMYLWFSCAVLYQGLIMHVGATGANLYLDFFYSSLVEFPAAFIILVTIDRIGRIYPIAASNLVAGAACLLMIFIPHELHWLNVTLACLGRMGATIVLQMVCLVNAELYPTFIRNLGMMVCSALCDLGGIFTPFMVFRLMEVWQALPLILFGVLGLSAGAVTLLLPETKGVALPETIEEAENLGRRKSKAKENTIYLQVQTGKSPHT
The data set can be described thus: TP_TRANSPORTER: decrease in liver concentration in Oct1 -/- mouse. Format: functional, organism-based. To be noted: in vivo.
In the case of `C[n+]1ccc(-c2ccccc2)cc1`, the Activity result is “substrate [+]”.
The entry for `N=C(N)NCc1cccc(I)c1` [IOBENGUANE] is “substrate [+]”; for `CC[N+](CC)(CC)CC` [TETRYLAMMONIUM] it is “substrate [+]”.

For the origin of these results see ChEMBL document CHEMBL2073961, “Reduced hepatic uptake and intestinal excretion of organic cations in mice with a targeted disruption of the organic cation transporter 1 (Oct1 [Slc22a1]) gene” (Mol Cell Biol, 2001).
